This is an account of results in ChEMBL document CHEMBL1136511, “Nonbenzamidine tetrazole derivatives as factor Xa inhibitors” (Bioorg Med Chem Lett, 2003).

For data set [1], the target named is Prothrombin (Homo sapiens, UniProt P00734). The data set can be described thus: Inhibitory constant against thrombin using human purified enzymes.
Data set [2] concerns the target Serine protease 1 (Homo sapiens, UniProt P07477). The data set is described as follows: Inhibitory constant against trypsin using human purified enzymes.
The target in data set [3] is Coagulation factor X (Homo sapiens, UniProt P00742). The data set can be described thus: Inhibition of human purified factor Xa.
Coagulation factor X, sequence (P00742 41-179 limits assumed): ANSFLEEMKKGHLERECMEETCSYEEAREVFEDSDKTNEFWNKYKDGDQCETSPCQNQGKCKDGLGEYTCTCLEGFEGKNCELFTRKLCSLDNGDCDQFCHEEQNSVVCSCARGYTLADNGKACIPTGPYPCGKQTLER
Coagulation factor X, sequence (P00742 235-488 limits assumed): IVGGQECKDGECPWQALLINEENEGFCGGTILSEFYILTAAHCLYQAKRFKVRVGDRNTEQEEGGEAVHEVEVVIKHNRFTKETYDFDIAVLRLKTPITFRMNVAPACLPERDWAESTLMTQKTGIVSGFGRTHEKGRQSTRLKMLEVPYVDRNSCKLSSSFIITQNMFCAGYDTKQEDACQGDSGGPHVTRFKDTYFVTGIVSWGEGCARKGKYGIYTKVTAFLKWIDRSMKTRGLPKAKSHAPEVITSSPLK
The nature of data set [4]: Clearance after intravenous administration of 1.0 mg/kg in dog was determined. The format is ADME, organism-based, Canis lupus familiaris. On the set-up: dose 1 mg/kg, route intravenous. The following applies: in vivo.
Data set [5] in a line: Half-life period after intravenous administration of 1.0 mg/kg in dog was determined. The following applies: in vivo. The format is ADME, organism-based, Canis lupus familiaris. Also on record: dose 1 mg/kg, route intravenous.
The species named for data set [6] is Oryctolagus cuniculus. The data set is described as follows: Antithrombotic efficacy in rabbit A-V shunt model was determined. It is filed as functional.
Data set [7] in a line: Clearance after intravenous administration of 0.5 mg/kg in dog was determined. On the set-up: dose 0.5 mg/kg, route intravenous. The format is ADME, organism-based, Canis lupus familiaris. To be noted: in vivo.
The nature of data set [8]: Clearance after peroral administration of 0.2 mg/kg in dog was determined. It is filed as ADME, organism-based, Canis lupus familiaris. Also on record: dose 0.2 mg/kg, route oral. The following applies: in vivo, po.
Data set [9] in a line: Half-life period after peroral administration of 0.2 mg/kg in dog was determined. On the set-up: dose 0.2 mg/kg, route oral. It is filed as ADME, organism-based, Canis lupus familiaris. To be noted: in vivo, po.
Data set [10] can be described thus: Half-life period after intravenous administration of 0.5 mg/kg in dog was determined. It is filed as ADME, organism-based, Canis lupus familiaris. On the set-up: dose 0.5 mg/kg, route intravenous. To be noted: in vivo.

Molecules are shown by their SMILES. Where only a bound is given, the exact number is not on record here.

Serine protease 1, sequence (P07477 whole entry): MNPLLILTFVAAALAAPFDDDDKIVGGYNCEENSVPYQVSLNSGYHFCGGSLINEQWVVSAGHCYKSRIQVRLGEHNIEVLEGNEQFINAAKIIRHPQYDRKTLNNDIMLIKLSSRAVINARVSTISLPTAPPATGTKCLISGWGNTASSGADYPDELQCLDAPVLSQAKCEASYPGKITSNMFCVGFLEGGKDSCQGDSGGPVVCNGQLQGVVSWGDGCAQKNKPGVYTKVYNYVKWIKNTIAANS

On to `COc1ccc(-n2nnnc2C(=O)Nc2ccc(-c3ccccc3S(N)(=O)=O)cc2)cc1N`, for which the Ki in data set [1] is 4000 nM; in [2], > 1600 nM.
`NCc1cccc(-n2nnnc2C(=O)Nc2ccc(-c3ccccc3S(N)(=O)=O)cc2)c1`: the Ki in data set [3] was 13 nM; in data set [1] it was > 21000 nM; in [2], 69 nM.
On the same counts, the results for `Nc1cc(-n2nnnc2C(=O)Nc2ccc(C(=O)N3CCCC3)cc2F)ccc1Cl` are 3 nM, 1200 nM and > 1600 nM.
The corresponding values for `Nc1noc2ccc(-n3nnnc3C(=O)Nc3ccc(C(=O)N4CCCC4)cc3F)cc12` are 2.9 nM, > 21000 nM and > 1600 nM.
The corresponding values for `Nc1cc(-n2nnnc2C(=O)Nc2ccc(-c3ccccc3S(N)(=O)=O)cc2)ccc1Cl` are 5.4 nM, 1600 nM and > 1600 nM.
Turning to `Nc1cc(-n2nnnc2C(=O)Nc2ccc(-c3ccccc3S(N)(=O)=O)cn2)ccc1Cl`, the Ki in data set [3] was 8 nM; in data set [1], 7900 nM; in [2] it was > 1600 nM.
Consider `Nc1cc(-n2nnnc2C(=O)Nc2ccc(-c3ccccc3S(N)(=O)=O)cc2F)ccc1Cl`, for which the Ki in data set [3] turned out to be 1.2 nM.
`N=C(N)c1cccc(-n2nnnc2C(=O)Nc2ccc(-c3ccccc3S(N)(=O)=O)cc2)c1` gave a clearance in data set [4] of 10.3 mL/min/kg. This compound gave a half-life in data set [5] of 0.65 h. In [6], this compound returned an ID50 of 0.13 µM/h/kg. Besides, the Ki in data set [2] was 6.4 nM.
In the case of `Nc1noc2ccc(-n3nnnc3C(=O)Nc3ccc(-c4ccccc4S(N)(=O)=O)cc3F)cc12`, the clearance in data set [7] was 5 mL/min/kg. This compound also gave an apparent clearance (CL/F) in data set [8] of 5 mL/min/kg. For the same compound, the half-life in data set [9] and in data set [10] was 3.1 h throughout. Further, the Ki in data set [3] was 0.35 nM; in data set [1], 600 nM; in data set [2], > 5200 nM. In data set [6], this compound came in with an ID50 of 5.8 µM/h/kg.
On to `Nc1cc(-n2nnnc2C(=O)Nc2ccc(-c3ccccc3S(N)(=O)=O)cc2Cl)ccc1Cl`, for which the Ki is 3.3 nM in [3], 1600 nM in data set [1] and > 1600 nM in data set [2].
Consider `COc1ccc(-n2nnnc2C(=O)Nc2ccc(-c3ccccc3S(N)(=O)=O)cc2)cc1`, for which the figures for the Ki in data set [3], in [1] and in data set [2] were 8 nM, 10000 nM and > 1600 nM, respectively.
On the same counts, the results for `CS(=O)(=O)c1ccccc1-c1ccc(NC(=O)c2nnnn2-c2ccc3onc(N)c3c2)c(F)c1` are 0.39 nM, 400 nM and > 1600 nM.
As for `Nc1noc2ccc(-n3nnnc3C(=O)Nc3ccc(-c4ccccc4S(N)(=O)=O)cc3)cc12`, the Ki in data set [3] was 0.98 nM; in [1], 1500 nM; in data set [2] it was > 1600 nM.

As a reminder, the Ki is the equilibrium dissociation constant of an inhibitor or competing ligand from its target. Broadly, the clearance is a measure of how efficiently the substance is removed, as volume per time. Broadly, the half-life is the time needed for the level to fall by half in the phase considered. Low values mean fast loss, high ones slow loss. Broadly, the CL/F is the apparent clearance, not corrected for the fraction that reaches the circulation.
